In paper PMC10314895, “Targeted protein degradation reveals BET bromodomains as the cellular target of Hedgehog pathway inhibitor-1” (Nature Communications, 2023):

Key:
Format in all cases: binding
BRD4 [1] = target: T1, BRD4 (Homo sapiens, UniProt O60885); experiment: BromoKd affinity assay (Eurofins Discovery)
BRD3 [2] = target: T2, BRD3 (Homo sapiens, UniProt Q15059); experiment: BromoKd affinity assay (Eurofins Discovery)
BRD2 [3] = target: T3, BRD2 (Homo sapiens, UniProt P25440); experiment: BromoKd affinity assay (Eurofins Discovery); design: second bromodomain BD2, BRD2(2)
Target sequence in this assay (P25440 344-453 limits assumed): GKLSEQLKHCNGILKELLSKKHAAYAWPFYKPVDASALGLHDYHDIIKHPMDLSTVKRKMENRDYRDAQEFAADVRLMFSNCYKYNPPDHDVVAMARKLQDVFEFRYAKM

BRD4 [4] = target: T1, BRD4; experiment: BromoKd affinity assay (Eurofins Discovery); cellular degradation competed by HPI-1
BRD3 [5] = target: T2, BRD3; experiment: as above
BRD2 [6] = target: T3, BRD2; experiment: as above
Target sequence in this assay (P25440 whole entry): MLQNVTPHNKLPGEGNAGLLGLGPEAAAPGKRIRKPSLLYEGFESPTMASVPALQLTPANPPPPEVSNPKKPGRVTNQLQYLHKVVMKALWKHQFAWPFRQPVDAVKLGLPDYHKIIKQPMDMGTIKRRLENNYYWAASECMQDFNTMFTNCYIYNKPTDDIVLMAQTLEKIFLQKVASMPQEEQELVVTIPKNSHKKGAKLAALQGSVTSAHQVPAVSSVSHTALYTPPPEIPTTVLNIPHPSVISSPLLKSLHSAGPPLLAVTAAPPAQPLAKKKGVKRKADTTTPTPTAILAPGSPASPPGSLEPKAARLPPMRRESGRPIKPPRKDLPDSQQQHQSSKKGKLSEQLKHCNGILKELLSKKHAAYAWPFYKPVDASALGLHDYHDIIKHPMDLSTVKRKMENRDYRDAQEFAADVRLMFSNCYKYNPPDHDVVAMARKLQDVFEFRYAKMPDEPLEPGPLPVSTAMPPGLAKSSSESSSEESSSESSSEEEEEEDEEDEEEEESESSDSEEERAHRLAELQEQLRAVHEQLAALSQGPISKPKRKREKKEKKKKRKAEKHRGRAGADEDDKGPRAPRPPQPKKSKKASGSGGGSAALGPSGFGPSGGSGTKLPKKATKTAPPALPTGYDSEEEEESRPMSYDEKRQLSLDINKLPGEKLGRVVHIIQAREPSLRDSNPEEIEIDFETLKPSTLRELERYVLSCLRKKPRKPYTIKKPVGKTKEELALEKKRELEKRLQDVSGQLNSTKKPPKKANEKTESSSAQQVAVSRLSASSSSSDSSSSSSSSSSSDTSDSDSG

T2 sequence (Q15059 2-726): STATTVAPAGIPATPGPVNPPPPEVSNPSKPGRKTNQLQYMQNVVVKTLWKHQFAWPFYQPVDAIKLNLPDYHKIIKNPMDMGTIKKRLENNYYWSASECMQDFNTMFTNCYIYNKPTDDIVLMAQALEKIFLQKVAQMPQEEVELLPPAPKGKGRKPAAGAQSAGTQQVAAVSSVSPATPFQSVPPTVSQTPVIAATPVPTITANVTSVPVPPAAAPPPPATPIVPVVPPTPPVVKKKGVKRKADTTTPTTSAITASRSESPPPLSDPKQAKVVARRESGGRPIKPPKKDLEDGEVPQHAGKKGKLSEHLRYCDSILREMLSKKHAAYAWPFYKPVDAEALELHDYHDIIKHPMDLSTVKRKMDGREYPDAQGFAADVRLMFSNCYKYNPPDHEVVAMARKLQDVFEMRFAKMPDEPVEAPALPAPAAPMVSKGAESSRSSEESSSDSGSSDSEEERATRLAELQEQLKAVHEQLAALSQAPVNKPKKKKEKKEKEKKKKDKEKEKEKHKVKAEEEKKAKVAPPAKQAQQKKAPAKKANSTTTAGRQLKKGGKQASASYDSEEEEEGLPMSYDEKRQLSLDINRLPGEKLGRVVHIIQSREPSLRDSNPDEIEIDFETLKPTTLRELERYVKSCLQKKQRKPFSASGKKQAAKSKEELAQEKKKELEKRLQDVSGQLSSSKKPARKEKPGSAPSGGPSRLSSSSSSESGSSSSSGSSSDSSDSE

Row | Kd (BRD4 [1]) | Kd (BRD3 [2]) | Kd (BRD2 [3]) | Kd (BRD4 [4]) | Kd (BRD3 [5]) | Kd (BRD2 [6]) | Structure (SMILES)
1 | ~15 nM | ~15 nM | 17 nM |  |  |  | COCCOC(=O)C1=C(C)NC2=C(C(=O)CC(c3ccccc3OC)C2)C1c1cccc(O)c1 (stereo not drawn) [HPI-1]
2 |  |  |  | ~200 nM | ~200 nM | ~200 nM | COCCOC(=O)C1=C(C)NC2=C(C(=O)CC(c3ccccc3OC)C2)C1c1cccc(OCc2cn(CCCCCCOc3cccc4c3C(=O)N(C3CCC(=O)NC3=O)C4=O)nn2)c1 (stereo not drawn) [HPP-9]
